Experimental data published in ChEMBL document CHEMBL1201861, “Genomics of Drug Sensitity in Cancer screening data, Wellcome Trust Sanger Institute”.

How the values were obtained:
[1] = system: COR-L105; test: cells; format: functional, cell-based; details: Homo sapiens
Description: SANGER: Inhibition of human COR-L105 cell growth in a cell viability assay.

[2] = system: Ca9-22; test: cells; format: functional, cell-based; details: Homo sapiens;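 also: growth inhibition of Ca9-22 cells, read out with a cell viability assay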
Description: SANGER: Inhibition of human Ca9-22 cell growth in a cell viability assay.

[3] = system: D-336MG; test: cells; format: functional, cell-based, Homo sapiens; details: Homo sapiens, D-336MG
Description: SANGER: Inhibition of human D-336MG cell growth in a cell viability assay.

[4] = system: DMS-273; test: cells; format: functional, cell-based; details: Homo sapiens
Description: SANGER: Inhibition of human DMS-273 cell growth in a cell viability assay.

[5] = system: EFO-21; test: cells; format: functional, cell-based; details: Homo sapiens;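 also: growth inhibition of EFO-21 cells measured with a viability assay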
Description: SANGER: Inhibition of human EFO-21 cell growth in a cell viability assay.

[6] = system: FTC-133; test: cells; format: functional, cell-based; details: Homo sapiens
[7] = system: G-361; test: cells; format: functional, cell-based; details: Homo sapiens
[8] = system: GAMG; test: cells; format: functional, cell-based; details: Homo sapiens;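 also: cell growth inhibition measured by a viability assay in the GAMG human cell line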
Description: SANGER: Inhibition of human GAMG cell growth in a cell viability assay.

[9] = system: HCC1419; test: cells; format: functional, cell-based; details: Homo sapiens;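 also: growth inhibition of human HCC1419 cells, read out as cell viability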
Description: SANGER: Inhibition of human HCC1419 cell growth in a cell viability assay.

[10] = system: HCC1569; test: cells; format: functional, cell-based; details: Homo sapiens;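 also: growth inhibition of human HCC1569 cells, read out with a cell viability assay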
Description: SANGER: Inhibition of human HCC1569 cell growth in a cell viability assay.

[11] = system: HLE; test: cells; format: functional, cell-based; details: Homo sapiens;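 also: growth inhibition of human HLE cells, read out by a cell viability assay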
Description: SANGER: Inhibition of human HLE cell growth in a cell viability assay.

[12] = system: HT-1080; test: cells; format: functional, cell-based; details: Homo sapiens
Description: SANGER: Inhibition of human HT-1080 cell growth in a cell viability assay.

[13] = system: HuTu80; test: cells; format: functional, cell-based, Homo sapiens, HUTU-80; details: Homo sapiens, HuTu80;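 also: growth inhibition of HuTu80 human cells, determined with a cell viability readout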
Description: SANGER: Inhibition of human HUTU-80 cell growth in a cell viability assay.

[14] = system: HuCCT-1; test: cells; format: functional, cell-based, HuCCT1; details: Homo sapiens;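 also: growth inhibition of HuCCT-1 cells, read out by a cell viability assay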
Description: SANGER: Inhibition of human HuCCT1 cell growth in a cell viability assay.

[15] = system: KYSE-150 cell line; test: cells; format: functional, cell-based; details: Homo sapiens;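 also: growth inhibition of human KYSE-150 cells, read out with a cell viability assay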
Description: SANGER: Inhibition of human KYSE-150 cell growth in a cell viability assay.

[16] = system: MC-IXC; test: cells; format: functional, cell-based; details: Homo sapiens;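 also: growth inhibition of MC-IXC cells, read out with a cell viability assay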
Description: SANGER: Inhibition of human MC-IXC cell growth in a cell viability assay.

[17] = system: MDA-MB-361; test: cells; format: functional, cell-based; details: Homo sapiens
[18] = system: NCI-H1563; test: cells; format: functional, cell-based; details: Homo sapiens;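 also: growth inhibition of human NCI-H1563 cells, read out with a cell viability assay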
Description: SANGER: Inhibition of human NCI-H1563 cell growth in a cell viability assay.

[19] = system: NCI-H1573; test: cells; format: functional, cell-based; details: Homo sapiens;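 also: growth inhibition of NCI-H1573 cells, read out with a cell viability assay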
Description: SANGER: Inhibition of human NCI-H1573 cell growth in a cell viability assay.

[20] = system: NCI-H2122; test: cells; format: functional, cell-based; details: Homo sapiens;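 also: growth inhibition of the cells, read out with a cell viability assay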
Description: SANGER: Inhibition of human NCI-H2122 cell growth in a cell viability assay.

[21] = system: NCI-H2452; test: cells; format: functional, cell-based; details: Homo sapiens;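 also: growth inhibition of NCI-H2452 cells, read out with a cell viability assay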
Description: SANGER: Inhibition of human NCI-H2452 cell growth in a cell viability assay.

[22] = system: NCI-H28; test: cells; format: functional, cell-based; details: Homo sapiens;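 also: growth inhibition of human NCI-H28 cells, read out as cell viability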
Description: SANGER: Inhibition of human NCI-H28 cell growth in a cell viability assay.

[23] = system: NCI-H661; test: cells; format: functional, cell-based; details: Homo sapiens;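 also: cell viability assay read-out, IC50 being the concentration that inhibits growth of the cells by half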
Description: SANGER: Inhibition of human NCI-H661 cell growth in a cell viability assay.

[24] = system: PA-1; test: cells; format: functional, cell-based; details: Homo sapiens;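 also: IC50 for suppression of PA-1 cell proliferation, determined with a cell viability read-out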
Description: SANGER: Inhibition of human PA-1 cell growth in a cell viability assay.

[25] = system: Panc1005; test: cells; format: functional, cell-based; details: Homo sapiens;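 also: growth inhibition of human PANC-10-05 cells, measured by a cell viability assay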
Description: SANGER: Inhibition of human PANC-10-05 cell growth in a cell viability assay.

[26] = system: SAS; test: cells; format: functional, cell-based; details: Homo sapiens;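 also: growth inhibition of SAS cells, read out with a cell viability assay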
Description: SANGER: Inhibition of human SAS cell growth in a cell viability assay.

[27] = system: SBC-5; test: cells; format: functional, cell-based; details: Homo sapiens;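 also: cell viability assay read-out, IC50 is the concentration that inhibits growth of the cells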
Description: SANGER: Inhibition of human SBC-5 cell growth in a cell viability assay.

[28] = system: SF-295; test: cells; format: functional, cell-based; details: Homo sapiens;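 also: growth inhibition of SF-295 cells, read out with a cell viability assay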
Description: SANGER: Inhibition of human SF295 cell growth in a cell viability assay.

[29] = system: SW1710; test: cells; format: functional, cell-based; details: Homo sapiens;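 also: growth inhibition of SW1710 cells, determined with a cell viability assay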
Description: SANGER: Inhibition of human SW1710 cell growth in a cell viability assay.

[30] = system: SW-620; test: cells; format: functional, cell-based; details: Homo sapiens;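 also: growth inhibition of human SW-620 cells, measured by a cell viability assay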
Description: SANGER: Inhibition of human SW620 cell growth in a cell viability assay.

[31] = system: SW756; test: cells; format: functional, cell-based; details: Homo sapiens;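 also: growth inhibition of human SW756 cells, read out with a cell viability assay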
Description: SANGER: Inhibition of human SW756 cell growth in a cell viability assay.

[32] = system: T-24; test: cells; format: functional, cell-based; details: Homo sapiens;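 also: growth inhibition of T-24 cells, read out with a cell viability assay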
Description: SANGER: Inhibition of human T-24 cell growth in a cell viability assay.

[33] = system: T47D; test: cells; format: functional, cell-based; details: Homo sapiens;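 also: growth inhibition of human T47D cells, measured with a cell viability assay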
Description: SANGER: Inhibition of human T47D cell growth in a cell viability assay.

[34] = system: 5637; test: cells; format: functional, cell-based; details: Homo sapiens
Description: SANGER: Inhibition of human 5637 cell growth in a cell viability assay.

[35] = system: 639-V; test: cells; format: functional, cell-based; details: Homo sapiens;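 also: growth inhibition of 639-V cells, read out with a cell viability assay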
Description: SANGER: Inhibition of human 639-V cell growth in a cell viability assay.

[36] = system: 786-0; test: cells; format: functional, cell-based; details: Homo sapiens
Description: SANGER: Inhibition of human 786-0 cell growth in a cell viability assay.

[37] = system: 8505C; test: cells; format: functional, cell-based; details: Homo sapiens
Description: SANGER: Inhibition of human 8505C cell growth in a cell viability assay.

[38] = system: BFTC-905; test: cells; format: functional, cell-based; details: Homo sapiens
Description: SANGER: Inhibition of human BFTC-905 cell growth in a cell viability assay.

[39] = system: C3A; test: cells; format: functional, cell-based; details: Homo sapiens;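 also: growth inhibition of C3A human cells, quantified with a cell viability readout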
Description: SANGER: Inhibition of human C3A cell growth in a cell viability assay.

[40] = system: CAL-12T; test: cells; format: functional, cell-based; details: Homo sapiens;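 also: growth inhibition of human CAL-12T cells, read out with a cell viability assay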
Description: SANGER: Inhibition of human CAL-12T cell growth in a cell viability assay.

[41] = system: CAL-85-1; test: cells; format: functional, cell-based; details: Homo sapiens;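 also: growth inhibition of human CAL-85-1 cells, read out with a cell viability assay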
Description: SANGER: Inhibition of human CAL-85-1 cell growth in a cell viability assay.

[42] = system: U-251; test: cells; format: functional, cell-based; details: Homo sapiens;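 also: growth inhibition of human U-251 cells, read out through a cell viability assay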
Description: SANGER: Inhibition of human U251 cell growth in a cell viability assay.

[43] = system: UACC-62; test: cells; format: functional, cell-based; details: Homo sapiens;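 also: growth inhibition of human UACC-62 cells, read out by a cell viability assay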
Description: SANGER: Inhibition of human UACC-62 cell growth in a cell viability assay.

[44] = system: VM-CUB-1; test: cells; format: functional, cell-based; details: Homo sapiens;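 also: cell viability assay measuring growth inhibition of the human VM-CUB-1 cell line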
Description: SANGER: Inhibition of human VM-CUB-1 cell growth in a cell viability assay.

[45] = system: CAMA-1; test: cells; format: functional, cell-based; details: Homo sapiens;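 also: growth inhibition of CAMA-1 cells, read out with a cell viability assay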
Description: SANGER: Inhibition of human CAMA-1 cell growth in a cell viability assay.

[46] = system: Daudi; test: cells; format: functional, cell-based, Homo sapiens; details: Homo sapiens, Daudi;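 also: growth inhibition of Daudi cells, read out by a viability assay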
Description: SANGER: Inhibition of human Daudi cell growth in a cell viability assay.

[47] = system: ECC4; test: cells; format: functional, cell-based, Homo sapiens; details: Homo sapiens, ECC4;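 also: growth inhibition of ECC4 cells, read out with a cell viability assay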
Description: SANGER: Inhibition of human ECC4 cell growth in a cell viability assay.

[48] = system: EVSA-T; test: cells; format: functional, cell-based, Homo sapiens; details: Homo sapiens, EVSA-T;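 also: growth inhibition of EVSA-T cells, read out with a cell viability assay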
Description: SANGER: Inhibition of human EVSA-T cell growth in a cell viability assay.

[49] = system: Kasumi 1; test: cells; format: functional, cell-based, Homo sapiens; details: Homo sapiens, Kasumi 1;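 also: growth inhibition of human Kasumi-1 cells, read out by a cell viability assay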
Description: SANGER: Inhibition of human KASUMI-1 cell growth in a cell viability assay.

[50] = system: LC-1F; test: cells; format: functional, cell-based, Homo sapiens; details: Homo sapiens, LC-1F;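 also: growth inhibition of human LC-1F cells, read out with a cell viability assay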
Description: SANGER: Inhibition of human LC-1F cell growth in a cell viability assay.

[51] = system: NB1; test: cells; format: functional, cell-based, Homo sapiens; details: Homo sapiens, NB1;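 also: reduction of NB1 cell proliferation, read out with a viability assay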
Description: SANGER: Inhibition of human NB1 cell growth in a cell viability assay.

[52] = system: NCI-H2196; test: cells; format: functional, cell-based, Homo sapiens; details: Homo sapiens, NCI-H2196; read-out: IC50;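 also: cell viability assay used as the readout of growth inhibition in NCI-H2196 cells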
Description: SANGER: Inhibition of human NCI-H2196 cell growth in a cell viability assay.

[53] = system: NCI-H345; test: cells; format: functional, cell-based, Homo sapiens; details: Homo sapiens, NCI-H345;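 also: growth inhibition of NCI-H345 cells measured with a cell viability assay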
Description: SANGER: Inhibition of human NCI-H345 cell growth in a cell viability assay.

[54] = system: NCI-H889; test: cells; format: functional, cell-based, Homo sapiens; details: Homo sapiens, NCI-H889;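 also: cell growth inhibition of the cell line, read out with a viability assay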
Description: SANGER: Inhibition of human NCI-H889 cell growth in a cell viability assay.

[55] = system: REH; test: cells; format: functional, cell-based, Homo sapiens; details: Homo sapiens, REH;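 also: growth inhibition of REH cells determined with a cell viability read-out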
Description: SANGER: Inhibition of human REH cell growth in a cell viability assay.

[56] = system: SU-DHL-1; test: SANGER: Inhibition of human SU-DHL-1 cell growth in a cell viability assay.; format: functional, cell-based; details: Homo sapiens, SU-DHL-1
[57] = system: SUP-T1; test: cells; format: functional, cell-based, Homo sapiens; details: Homo sapiens, SUP-T1;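 also: growth inhibition of human SUP-T1 cells, read out as cell viability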
Description: SANGER: Inhibition of human SUP-T1 cell growth in a cell viability assay.

[58] = system: ARH-77; test: cells; format: functional, cell-based, Homo sapiens; details: Homo sapiens, ARH-77;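 also: growth inhibition of ARH-77 cells, read out by a cell viability assay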
Description: SANGER: Inhibition of human ARH-77 cell growth in a cell viability assay.

[59] = system: BL-70; test: SANGER: Inhibition of human BL-70 cell growth in a cell viability assay.; format: functional, cell-based; details: Homo sapiens, BL-70
[60] = system: CA46; test: cells; format: functional, cell-based, Homo sapiens; details: Homo sapiens, CA46;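 also: growth inhibition of human CA46 cells, read out by a cell viability assay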
Description: SANGER: Inhibition of human CA46 cell growth in a cell viability assay.

NC(=O)c1ccc(N(C(N)=O)c2c(F)cccc2F)nc1-c1ccc(F)cc1F [VX-702]
IC50 [1]: > 2000 nM | IC50 [2]: > 2000 nM | IC50 [3]: > 2000 nM | IC50 [4]: > 2000 nM | IC50 [5]: > 2000 nM | IC50 [6]: > 2000 nM | IC50 [7]: 1500 nM | IC50 [8]: > 2000 nM | IC50 [9]: > 2000 nM | IC50 [10]: > 2000 nM | IC50 [11]: > 2000 nM | IC50 [12]: > 2000 nM | IC50 [13]: > 2000 nM | IC50 [14]: > 2000 nM | IC50 [15]: > 2000 nM | IC50 [16]: > 2000 nM | IC50 [17]: > 2000 nM | IC50 [18]: > 2000 nM | IC50 [19]: > 2000 nM | IC50 [20]: > 2000 nM | IC50 [21]: > 2000 nM | IC50 [22]: > 2000 nM | IC50 [23]: > 2000 nM | IC50 [24]: > 2000 nM | IC50 [25]: > 2000 nM | IC50 [26]: > 2000 nM | IC50 [27]: > 2000 nM | IC50 [28]: > 2000 nM | IC50 [29]: > 2000 nM | IC50 [30]: > 2000 nM | IC50 [31]: > 2000 nM | IC50 [32]: > 2000 nM | IC50 [33]: > 2000 nM | IC50 [34]: > 2000 nM | IC50 [35]: > 2000 nM | IC50 [36]: > 2000 nM | IC50 [37]: > 2000 nM | IC50 [38]: > 2000 nM | IC50 [39]: > 2000 nM | IC50 [40]: > 2000 nM | IC50 [41]: > 2000 nM | IC50 [42]: > 2000 nM | IC50 [43]: > 2000 nM | IC50 [44]: > 2000 nM | IC50 [45]: > 2000 nM

O=S(=O)(O)c1ccc2cc(/N=N/c3cc(S(=O)(=O)O)c4cccnc4c3O)ccc2c1
IC50 [1]: > 16000 nM | IC50 [2]: > 16000 nM | IC50 [3]: > 16000 nM | IC50 [4]: > 16000 nM | IC50 [46]: > 16000 nM | IC50 [47]: > 16000 nM | IC50 [5]: > 16000 nM | IC50 [48]: > 16000 nM | IC50 [6]: > 16000 nM | IC50 [7]: > 16000 nM | IC50 [8]: > 16000 nM | IC50 [9]: > 16000 nM | IC50 [10]: > 16000 nM | IC50 [11]: > 16000 nM | IC50 [12]: > 16000 nM | IC50 [13]: > 16000 nM | IC50 [14]: > 16000 nM | IC50 [49]: > 16000 nM | IC50 [15]: > 16000 nM | IC50 [50]: > 16000 nM | IC50 [16]: > 16000 nM | IC50 [17]: > 16000 nM | IC50 [51]: > 16000 nM | IC50 [18]: > 16000 nM | IC50 [20]: > 16000 nM | IC50 [52]: > 16000 nM | IC50 [21]: > 16000 nM | IC50 [22]: > 16000 nM | IC50 [53]: > 16000 nM | IC50 [23]: > 16000 nM | IC50 [54]: > 16000 nM | IC50 [24]: > 16000 nM | IC50 [25]: > 16000 nM | IC50 [55]: > 16000 nM | IC50 [26]: > 16000 nM | IC50 [27]: > 16000 nM | IC50 [28]: > 16000 nM | IC50 [56]: > 16000 nM | IC50 [57]: > 16000 nM | IC50 [29]: > 16000 nM | IC50 [30]: > 16000 nM | IC50 [31]: > 16000 nM | IC50 [32]: > 16000 nM | IC50 [33]: > 16000 nM | IC50 [34]: > 16000 nM | IC50 [35]: > 16000 nM | IC50 [36]: 5590 nM | IC50 [37]: > 16000 nM | IC50 [58]: > 16000 nM | IC50 [38]: > 16000 nM | IC50 [59]: > 16000 nM | IC50 [39]: > 16000 nM | IC50 [60]: > 16000 nM | IC50 [40]: > 16000 nM | IC50 [41]: > 16000 nM | IC50 [42]: > 16000 nM | IC50 [43]: > 16000 nM | IC50 [44]: > 16000 nM | IC50 [45]: > 16000 nM

COC(=O)[C@H](CCSC)NC(=O)c1ccc(NC[C@@H](N)CS)cc1-c1ccccc1
IC50 [1]: > 1020 nM | IC50 [2]: > 1020 nM | IC50 [3]: > 1020 nM | IC50 [4]: > 1020 nM | IC50 [46]: > 1020 nM | IC50 [47]: > 1020 nM | IC50 [5]: > 1020 nM | IC50 [48]: > 1020 nM | IC50 [6]: > 1020 nM | IC50 [7]: > 1020 nM | IC50 [8]: > 1020 nM | IC50 [9]: > 1020 nM | IC50 [10]: > 1020 nM | IC50 [11]: > 1020 nM | IC50 [12]: > 1020 nM | IC50 [13]: > 1020 nM | IC50 [14]: > 1020 nM | IC50 [49]: > 1020 nM | IC50 [15]: > 1020 nM | IC50 [50]: > 1020 nM | IC50 [16]: > 1020 nM | IC50 [17]: > 1020 nM | IC50 [51]: > 1020 nM | IC50 [18]: > 1020 nM | IC50 [20]: > 1020 nM | IC50 [52]: > 1020 nM | IC50 [21]: > 1020 nM | IC50 [22]: > 1020 nM | IC50 [53]: > 1020 nM | IC50 [23]: > 1020 nM | IC50 [54]: > 1020 nM | IC50 [24]: > 1020 nM | IC50 [25]: > 1020 nM | IC50 [55]: > 1020 nM | IC50 [26]: > 1020 nM | IC50 [27]: > 1020 nM | IC50 [28]: > 1020 nM | IC50 [56]: > 1020 nM | IC50 [57]: > 1020 nM | IC50 [29]: > 1020 nM | IC50 [30]: > 1020 nM | IC50 [31]: > 1020 nM | IC50 [32]: > 1020 nM | IC50 [33]: > 1020 nM | IC50 [34]: > 1020 nM | IC50 [35]: > 1020 nM | IC50 [36]: > 1020 nM | IC50 [37]: > 1020 nM | IC50 [58]: > 1020 nM | IC50 [38]: > 1020 nM | IC50 [59]: > 1020 nM | IC50 [39]: > 1020 nM | IC50 [60]: > 1020 nM | IC50 [40]: > 1020 nM | IC50 [41]: > 1020 nM | IC50 [42]: > 1020 nM | IC50 [43]: > 1020 nM | IC50 [44]: > 1020 nM | IC50 [45]: > 1020 nM
